Experimental data from publication PMC4007584 (Journal of biomolecular screening, 2013).
Counter-ions that a name gives are not always drawn.

Legend:
[1] = target: catalytic domain of PDE10A2 (Homo sapiens, UniProt Q9Y233); assay: PDE10A calorimetric activity assay; assay type: biochemical
PDE10A = settings: literature; cited from earlier work
R6/2 mice = settings: IP beginning at 4 weeks of age; cited from earlier work

Chain of catalytic domain of PDE10A2 (Q9Y233 715-1055 limits assumed): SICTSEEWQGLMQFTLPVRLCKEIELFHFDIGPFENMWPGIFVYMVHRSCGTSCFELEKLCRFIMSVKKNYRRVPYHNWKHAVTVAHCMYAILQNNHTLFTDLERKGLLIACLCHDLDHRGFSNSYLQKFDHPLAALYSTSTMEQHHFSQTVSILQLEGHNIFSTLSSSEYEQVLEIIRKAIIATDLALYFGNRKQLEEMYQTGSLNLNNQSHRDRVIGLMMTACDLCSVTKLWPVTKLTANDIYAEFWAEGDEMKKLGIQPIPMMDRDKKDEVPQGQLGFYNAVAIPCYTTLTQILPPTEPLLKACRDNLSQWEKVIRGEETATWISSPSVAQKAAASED

| SMILES | Ki [1] [µM] | inhibition mechanism, PDE10A [1] | Ligand Efficiency PDE10A ([1]; Table 1, from enthalpy array KI) [kcal mol^−1 HA^−1] | IC50 (PDE10A) [µM] | reduction of the loss of striatal size (R6/2 mice) [%] |
| --- | --- | --- | --- | --- | --- |
| CC(C)Cn1c(=O)n(C)c(=O)c2[nH]cnc21 [IBMX, 3-isobutyl-1-methylxanthine] | 17 ± 6.6 | competitive inhibition | 0.41 | 11 |  |
| COc1ccc(Cc2nccc3cc(OC)c(OC)cc23)cc1OC [Papaverine, papaverine hydrochloride] |  | competitive inhibition |  | 0.095 |  |
| FC(F)(F)Cn1cc(-c2ccncc2)c(-c2ccc(OCc3ccc4ccccc4n3)cc2)n1 [TP-10] |  |  |  |  | 50 |
| CC(=O)CCCCn1c(=O)c2c(ncn2C)n(C)c1=O [Pentoxifylline, pentoxifylline] | 200 ± 60 | competitive inhibition |  |  |  |
